Source: patent US8067189B2, “Methods for determining sensitivity to vascular endothelial growth factor receptor-2 modulators by measuring the level of collagen type IV” (Bristol-Myers Squibb Company, priority 2005, dated 2011)

Key:
[1] = test system: VEGFR-2 co-expressed biomarkers (mRNA levels in xenograft tumors); assay: Gene expression profiling (Affymetrix mouse 430A arrays) of un-treated vs treated xenograft tumors; type: in vivo
Procedure: (§1) Tumors were propagated in nude mice as subcutaneous (sc) transplants using L2987 and HCT-116 cancer cell lines. Tumor passage occurred approximately every two to four weeks. Tumors were then allowed to grow to the pre-determined size window (100-200 mm^3, tumors outside the range were excluded) and animals were evenly distributed to various treatment and control groups. Animals were treated with the example VEGFR-2 inhibitor (100 mg/kg 1 qd×14 days). Treated animals were checked daily for treatment related toxicity/mortality. Each group of animals was weighed before the initiation of treatment (Wt1) and then again following the last treatment dose (Wt2). The difference in body weight (Wt2−Wt1) provided a measure of treatment-related toxicity. Tumor response was determined by measurement of tumors with a caliper twice a week, until the tumors reached a predetermined target size. Animals that were distributed to various treatment and control groups during the study were eventually sacrificed to obtain tumor and blood samples for genomic and protein analysis.
The colon tumor samples obtained from cancer patients were snap frozen in liquid nitrogen within 20 minutes of resection and stored thereafter at −80° C. The mouse xenograft tumor samples were split into two halves. One half was mixed in a vial of 10% formalin to be used for IHC and the other half was mixed in 1.0 ml of RNAlater™ RNA Stabilization Reagent (Ambion, Inc., Austin, Tex.) held at room temperature for 30 minutes then stored at −80° C. Total RNA was extracted from the tumor samples using the RNeasy Kit™ (Qiagen, Valencia Calif.). At least 1 μg total RNA with a 260/280 ratio ≧1.8 by spectrophotometry (DU640 UV, Beckman Coulter, Fullerton, Calif.) was required for transcriptional profiling. Briefly, the tumor samples were homogenized in a lysis-binding solution supplied by Qiagen. An equal volume of ethanol was mixed into each sample, the mixture was passed through the filter cartridges provided, and the rest of the extraction protocol was followed (Ambion). RNA yield and quality were assessed on a standard 1% agarose gel. A ratio 28 s/18 s RNA in the range of 1.5 to 2.5 indicated high quality RNA that is free of degradation. RNA samples were stored at −80° C.
Transcriptional profiling was performed on the RNA obtained from the tumor samples. The Affymetrix GeneChip system (Affymetrix, Santa Clara, Calif.) was used for hybridization and scanning of the human U133A and mouse 430A arrays. Data were preprocessed using the MAS 5.0 software. Generation of cRNA followed a standard T7 amplification protocol. Total RNA was reverse-transcribed with SuperScript II (Gibco, Carlsbad, Calif.) in the presence of T7-(dT)24 primer to generate first strand cDNA. A second-strand cDNA synthesis was performed in the presence of DNA Polymerase I, DNA ligase, and RNase H (Gibco). The resulting double-stranded cDNA was blunt-ended using T4 DNA polymerase. This double-stranded cDNA was then transcribed into cRNA in the presence of biotin-ribonucleotides using the BioArray High Yield RNA transcript labeling kit (Enzo Life Sciences, Farmingdale, N.Y.). The amplified, biotin-labeled cRNA was purified using Qiagen RNeasy columns (Qiagen Sciences), quantified and fragmented at 94° C. for 35 minutes in the presence of fragmentation buffer (1×). Fragmented cRNA was hybridized to the Affymetrix U113A and 430A arrays overnight at 42° C. The arrays were then placed in the fluidics stations for staining and washing as recommended by Affymetrix protocols. The chips were scanned and raw intensity values were generated for each probe on the arrays.
The 94 co-expressed VEGFR-2 genes identified from human cancers profiled on U133A arrays were used to identify their corresponding mouse homolog from mouse xenografts tumors profiled on mouse 430A arrays. […]

[2] = test system: Collagen type IV (COL4A1); assay: Immunohistochemistry of xenograft tumors; type: in vivo, mouse; details: treated xenograft tumors relative to un-treated tumors
Procedure: as §1
(§2) Tissue specimens collected for IHC were fixed by using 10% formalin. After fixation, the chemical fixative was discarded and the specimens were submerged in 70% ethanol before being embedded in paraffin blocks. Five micron tissue sections were cut from each block and placed on positively charged microscope slides. The tissue slides were de-paraffined by immersing in xylene. The slides were re-hydrated in 100% ethanol, 95% ethanol, and 70% ethanol. After re-hydration, the slides were washed several times with deionized water at room temperature. Multiple antigen retrieval conditions (Citra, Citra Plus, and AR10) were tested by use of the BioGenex EZ-retriever microwave to determine the best conditions. Staining optimization was performed in an automated BioGenex i6000 IHC system for each of the candidate marker antibodies independently. Both treated and un-treated xenografts were stained in the same run to minimize slide to slide variations. […]

[3] = test system: angiotensin receptor-like 1 (AGTRL1); assay: Immunohistochemistry of xenograft tumors; type: in vivo, mouse; details: treated xenograft tumors relative to un-treated tumors
Procedure: as §1, §2

[4] = test system: complement component 1, q subcomponent, receptor 1 (C1qR1); assay: Immunohistochemistry of xenograft tumors; type: in vivo, mouse; details: treated xenograft tumors relative to un-treated tumors
Procedure: as §1, §2

Cc1cc2c(F)c(Oc3ncnn4cc(OC[C@@H](C)OC(=O)[C@H](C)N)c(C)c34)ccc2[nH]1 [example VEGFR-2 inhibitor, [(1R),2S]-2-Aminopropionic acid 2-[4-(4-fluoro-2-methyl-1H-indol-5-yloxy)-5-methylpyrrolo[2,1-f][1,2,4]triazin-6-yloxy]-1-methylethyl ester]
2: fold-change mRNA, endoglin (Eng) ([1]; mouse 430A probe 1417271_a_at, 100 mg/kg 1 qd×14 days, t-test P 0.021873085) | fold-change mRNA, Prg1 ([1]; mouse 430A probe 1417426_at, 100 mg/kg 1 qd×14 days, t-test P 0.034821585) | fold-change mRNA, Eltd1 ([1]; mouse 430A probe 1418059_at, 100 mg/kg 1 qd×14 days, t-test P 0.018655985) | fold-change mRNA, VE-Cadherin (Cdh5) ([1]; mouse 430A probe 1433956_at, 100 mg/kg 1 qd×14 days, t-test P 0.001154369) | fold-change mRNA, Agtrl1 ([1]; mouse 430A probe 1438651_a_at, 100 mg/kg 1 qd×14 days, t-test P 0.026038828) | fold-change mRNA, Gng11 ([1]; mouse 430A probe 1448942_at, 100 mg/kg 1 qd×14 days, t-test P 0.001326667)
negative or lesser degree of staining: IHC staining of Collagen type IV (COL4A1) around tumor blood vessels following treatment [2] | IHC staining of angiotensin receptor-like 1 (AGTRL1) around tumor blood vessels following treatment [3] | IHC staining of C1qR1 around tumor blood vessels following treatment [4]
5: fold-change mRNA, C1qr1 (Ly68) ([1]; mouse 430A probe 1419589_at, 100 mg/kg 1 qd×14 days, t-test P 0.000005)
11: fold-change mRNA, Tie1 ([1]; mouse 430A probe 1416238_at, 100 mg/kg 1 qd×14 days, t-test P 0.00103262)
1: fold-change mRNA, Tek ([1]; mouse 430A probe 1418788_at, 100 mg/kg 1 qd×14 days, t-test P 0.047098006) | fold-change mRNA, S100a8 ([1]; mouse 430A probe 1419394_s_at, 100 mg/kg 1 qd×14 days, t-test P 0.040857487) | fold-change mRNA, Col16a1 ([1]; mouse 430A probe 1427986_a_at, 100 mg/kg 1 qd×14 days, t-test P 0.014896833) | fold-change mRNA, Pkig ([1]; mouse 430A probe 1434820_s_at, 100 mg/kg 1 qd×14 days, t-test P 0.032286798) | fold-change mRNA, Cav1 ([1]; mouse 430A probe 1449145_a_at, 100 mg/kg 1 qd×14 days, t-test P 2.72030E−04) | fold-change mRNA, Pde1a ([1]; mouse 430A probe 1449298_a_at, 100 mg/kg 1 qd×14 days, t-test P 0.025570996)
no: direction of change in mRNA levels, Tek ([1]; mouse 430A probe 1418788_at) | direction of change in mRNA levels, S100a8 ([1]; mouse 430A probe 1419394_s_at) | direction of change in mRNA levels, Col16a1 ([1]; mouse 430A probe 1427986_a_at) | direction of change in mRNA levels, Pkig ([1]; mouse 430A probe 1434820_s_at) | direction of change in mRNA levels, Cav1 ([1]; mouse 430A probe 1449145_a_at) | direction of change in mRNA levels, Pde1a ([1]; mouse 430A probe 1449298_a_at)
6: fold-change mRNA, Col4a1 ([1]; mouse 430A probe 1452035_at, 100 mg/kg 1 qd×14 days, t-test P 0.000018)
4: fold-change mRNA, Agtrl1 ([1]; mouse 430A probe 1423037_at, 100 mg/kg 1 qd×14 days, t-test P 5.54812E−04) | fold-change mRNA, Col4a1 ([1]; mouse 430A probe 1427986_a_at, 100 mg/kg 1 qd×14 days, t-test P 0.000014)
3: fold-change mRNA, nidogen 2 (Nid2) ([1]; mouse 430A probe 1423516_a_at, 100 mg/kg 1 qd×14 days, t-test P 0.024126268)
